Values after ≈ are worked out from the molar mass of the structure shown. Values joined by “and” are separate entries in the source; they are usually repeats but may differ in a detail not shown here. Equal values may be shown once. “Also recorded” adds a separate entry of the source.
How the values were obtained:
Hepatitis B virus [1] = assay: Effect on synthesis of antigen markers in persistently infected human HEP G2 cell cultures (Table 7); type: cell-based; settings: for activity at 10 µM: Hepatitis B virus, HepG2, 216 h
Method: Cells were treated with compound for nine days at 37° C. The overlay medium was harvested to measure levels of HBsAg, HBeAg and virion DNA. HBsAg and HBeAg were assayed by EIA (Abbott Laboratories). Virion DNA levels were measured as described in section B above.

Hepatitis B virus [2] = assay: Effect of alkyl lipids on HBV replication in HBV persistently infected human HEP G2 cells (Table 6); type: cell-based; settings: for Intracellular HBV DNA, Mono (episomal 3.2-3.8 Kb HBV genomes) / Intracellular HBV DNA, RI (replication intermediates): nine days
Method: Cells were treated with a particular compound for nine days at 37° C. Analysis of intracellular HEIV DNA was done 24 hours following the ninth day of treatment. […] The levels of integrated HBV DNA in each cellular DNA preparation were used to calculate the levels of episomal 3.2-3.8 Kb HBV genomes (Mono) and HBV DNA replication intermediates (RI). A zero value indicates an undetectable level of HBV virion DNA. The sensitivity cut-off was 0.1 pg DNA/ml of culture medium.

Hepatitis B virus [3] = assay: Anti-hepatitis B virus activity in HEP-G2 cells persistently infected with HBV (Table 2); type: cell-based; settings: for activity at 10 µM: Hepatitis B virus, HepG2, 216 h
Method: HEP-G2 cells persistently infected with HBV were treated daily with fresh D-MEM containing 20% FBS and 10 μM compound. After 9 days incubation and treatment, the overlay medium was harvested to assay the quantity of Hepatitis B virus s antigen (HBsAg) and HBeAg by EIA (Abbott Laboratories). The overlay medium was diluted to levels of antigen in the linear range of the assay. Standard curves using dilutions of positive HBsAg and HBeAg controls were included in each assay. Virion DNA was assayed using the method set forth in Korba and Gerin, Antiviral Res., 19, 5,5-70 (1992), incorporated by reference herein. HBV DNA was extracted from the overlay medium containing virus particles and analyzed by a slot-blot hybridization technique using ^32 P-labelled 3.2 Kb Eco R1 HBV DNA fragment by comparisons to HBV standards present on nitrocellulose filters using an AMBIS beta scanner. EC90 values (90% effective concentration, i.e., drug concentration which induces a 90% decrease in the levels of HBV DNA replication intermediates in treated versus control cells) were calculated by linear regression analysis. The relative levels of HBsAg, HBeAg and virion DNA were calulated as a percentage of the average levels obtained from the untreated controls.

[4] = Cytotoxicity of alkyl lipids, neutral red dye uptake (Table 1); type: cell-based; settings: human, hep-g2 cells
Description: (§1) Initially, evaluations of the alkyl lipids were done to determine whether the compounds were cytotoxic to the cells at concentrations having anti-HBV activity. The assay methodology is szt forth in Korba and Germ, Antiviral Res., 19, 55-70 (1992), incorporated by reference herein. Briefly, these cell cytotoxicity evaluations were done in 96-well plates seeded with HEP-G2 cell monolayers. The hepatoblastoma cell line HEP-G2 transfected with a plasmid carrying the gene that confers resistance to […] and four 5'-3' tandem copies of the Hepatitis B virus genome was obtained from Dr. George Acs. Proc. Natl. Acad. Sci. USA, 84, 1005-1009 (1987). Serial concentrations of compound were added to the RPMI-1640 growth medium and the growth medium was added to the 96-well plates containing the cell monolayers. The cells were incubated for a total of nine days at 37° C. The compound-containing medium was periodically replaced. Each compound was tested at four serial concentrations in triplicate. After nine days of treatment and incubation, 0.01% neutral red dye (Sigma, Inc.) was added to the overlay medium. Cell cytotoxicity was quantitated by measuring the average A510. Values in Table 1 represent the percentage of average A510 values (±standard deviation) relative to nine non-treated control wells.

[5] = Cytotoxicity in HBV persistently infected human HEP G2 cells, neutral red dye uptake (Table 5); type: cell-based; settings: human, hep-g2 cells, % of Control Neutral Red Dye Uptake
Description: as §1
(§2) An analysis was periormed to determine the cytotoxicity of the following compounds in human HEP-G2 cells persistently infected with HBV: CP-51, CP-49, CP-9, CP-126, lyso PAF and CP-7. 2'-3'-Dideoxycytidine (ddC) was used as a control in this cytotoxicity analysis. The toxicity analyses were performed in 96-well flat bottomed tissue culture plates following the same procedure set forth in Example 6 above. Each compound was tested at four concentrations, each in triplicate cultures. Uptake of neutral red dye was used to determine the relative level of toxicity. The absorbance of internalized dye at […] (A510) was used for the quantitative analysis.
(§3) Values are presented as a percentage of the average A510 values (± standard deviations) in ninz separate cultures of untreated cells maintained on the same 96-well plate as the test compounds. The percentage of dye uptake in the nine control cultures was 100±1.

[6] = test system: HEP G2 cells persistently infected with HBV; assay: as above; type: cell-based
Description: as §1, §2, §3

[7] = test system: granulocyte/macrophage (CFU-GM); assay: Cytotoxicity: inhibition of mouse granulocyte/macrophage (CFU-GM) colony formation; type: cell-based; settings: read-out: inhibitory concentration 50% for colony formation (IC50)
Method: CP-51 and AZT were assayed for cytotoxicity by inhibition of mouse precursor erythrocyte (CFU-E) and granulocyte/macrophage (CFU-GM) cell colony formation. Mouse bone marrow precursor cells were suspended in soft-agar-RPMI-1640 medium supplmented with cell growth factors and serial concentrations of alkyl lipid.

Friend-Leukemia virus = assay: Inhibition of retrovirus-induced splenomegaly in Friend-Leukemia virus infected mice (Table 9); type: in vivo
Method: Mice were infected I.P. with Friend-Leukemia virus and not treated or treated I.P. with daily doses of phospholipid. After 14 days infection and treatment, the mice were sacrificed, the spleens were removed and weighed to determine the percentage, of control splenomegaly. […] Even a single dose of 25 mg/kg CP-51 inhibited splenomegaly by 36%.

[8] = test system: mouse precursor erythrocyte (CFU-E); assay: Cytotoxicity: inhibition of mouse precursor erythrocyte (CFU-E) colony formation; type: cell-based; settings: Mus musculus, Erythrocyte, read-out: inhibitory concentration 50% for colony formation (IC50)
Method: CP-51 and AZT were assayed for cytotoxicity by inhibition of mouse precursor erythrocyte (CFU-E) and granulocyte/macrophage (CFU-GM) cell colony formation.

CCCCCCCCCCCCCCCC(=O)NCC(COP(=O)([O-])OCC[N+](C)(C)C)OCC (racemic) [CP-49, rac-3-hexadecanamido-2-ethoxy-1-propylphosphocholine]
Relative Level of HBeAg (Hepatitis B virus [1]; 10 μM, nine days, 12960 min): 26 % of Untreated Control
Relative Level of HBsAg (Hepatitis B virus [1]; 10 μM, nine days, 12960 min): 113 % of Untreated Control
Relative Level of Virion DNA (Hepatitis B virus [1]; 10 μM, nine days, 12960 min): 1 % of Untreated Control
activity at 10 µM (Hepatitis B virus [1]; read-out: Relative Level of HBeAg, 10 μM, nine days): 33%
activity at 10 µM (Hepatitis B virus [1]; read-out: Relative Level of HBsAg, 10 μM, nine days): 116%
activity at 10 µM (Hepatitis B virus [1]; read-out: Relative Level of Virion DNA, 10 μM, nine days): 1%
effect on HBsAg levels released into the culture medium (Hepatitis B virus [1]; in words): None of the compounds tested
reduction in HBeAg and virion DNA levels (Hepatitis B virus [1]; in words): caused a reduction; also recorded: most active compounds in suppressing HBeAg and virion DNA levels
HBV Virion DNA (Hepatitis B virus [2]; 0.1 μM, Day 0): 71 pg/ml Culture Medium and 55 pg/ml Culture Medium and 72 pg/ml Culture Medium and 62 pg/ml Culture Medium
HBV Virion DNA (Hepatitis B virus [2]; 0.1 μM, Day 3): 72 pg/ml Culture Medium and 56 pg/ml Culture Medium and 88 pg/ml Culture Medium and 75 pg/ml Culture Medium
HBV Virion DNA (Hepatitis B virus [2]; 0.1 μM, Day 6): 62 pg/ml Culture Medium and 69 pg/ml Culture Medium and 55 pg/ml Culture Medium
HBV Virion DNA (Hepatitis B virus [2]; 0.1 μM, Day 9): 75 pg/ml Culture Medium and 65 pg/ml Culture Medium and 77 pg/ml Culture Medium and 57 pg/ml Culture Medium
Intracellular HBV DNA, Mono (episomal 3.2-3.8 Kb HBV genomes) (Hepatitis B virus [2]; 0.1 μM): 2.2 pg/μg Cell DNA and 2.3 pg/μg Cell DNA and 2.5 pg/μg Cell DNA and 2.6 pg/μg Cell DNA
Intracellular HBV DNA, RI (replication intermediates) (Hepatitis B virus [2]; 0.1 μM): 60 pg/μg Cell DNA and 61 pg/μg Cell DNA and 74 pg/μg Cell DNA and 79 pg/μg Cell DNA
HBV Virion DNA (Hepatitis B virus [2]; 1 μM, Day 0): 56 pg/ml Culture Medium and 51 pg/ml Culture Medium and 66 pg/ml Culture Medium and 79 pg/ml Culture Medium
HBV Virion DNA (Hepatitis B virus [2]; 1 μM, Day 3): 56 pg/ml Culture Medium and 58 pg/ml Culture Medium and 60 pg/ml Culture Medium and 68 pg/ml Culture Medium
HBV Virion DNA (Hepatitis B virus [2]; 1 μM, Day 6): 38 pg/ml Culture Medium and 41 pg/ml Culture Medium and 43 pg/ml Culture Medium and 44 pg/ml Culture Medium
HBV Virion DNA (Hepatitis B virus [2]; 1 μM, Day 9): 10 pg/ml Culture Medium and 13 pg/ml Culture Medium and 11 pg/ml Culture Medium and 18 pg/ml Culture Medium
Intracellular HBV DNA, Mono (episomal 3.2-3.8 Kb HBV genomes) (Hepatitis B virus [2]; 1 μM): 2.3 pg/μg Cell DNA and 2.4 pg/μg Cell DNA and 2.2 pg/μg Cell DNA and 2.1 pg/μg Cell DNA
Intracellular HBV DNA, RI (replication intermediates) (Hepatitis B virus [2]; 1 μM): 24 pg/μg Cell DNA and 20 pg/μg Cell DNA and 25 pg/μg Cell DNA and 30 pg/μg Cell DNA
HBV Virion DNA (Hepatitis B virus [2]; 10 μM, Day 0): 73 pg/ml Culture Medium and 53 pg/ml Culture Medium and 56 pg/ml Culture Medium and 77 pg/ml Culture Medium
HBV Virion DNA (Hepatitis B virus [2]; 10 μM, Day 3): 49 pg/ml Culture Medium and 55 pg/ml Culture Medium and 57 pg/ml Culture Medium and 50 pg/ml Culture Medium
HBV Virion DNA (Hepatitis B virus [2]; 10 μM, Day 6): 21 pg/ml Culture Medium and 22 pg/ml Culture Medium and 19 pg/ml Culture Medium and 24 pg/ml Culture Medium
Intracellular HBV DNA, Mono (episomal 3.2-3.8 Kb HBV genomes) (Hepatitis B virus [2]; 10 μM): 2.6 pg/μg Cell DNA and 2.4 pg/μg Cell DNA and 2.2 pg/μg Cell DNA and 2.7 pg/μg Cell DNA
Intracellular HBV DNA, RI (replication intermediates) (Hepatitis B virus [2]; 10 μM): 9 pg/μg Cell DNA and 8 pg/μg Cell DNA and 6 pg/μg Cell DNA
inhibition of HBV virion DNA and intracellular HBV RI DNA levels (Hepatitis B virus [2]; in words, versus ddC): markedly inhibited; also recorded: substantially inhibited
activity against HBV-induced virion DNA and HBeAg syntheses (Hepatitis B virus [3]; 10 μM, in words): potent inhibitory activity
activity at 10 µM (Hepatitis B virus [3]; read-out: Relative Level of HBeAg): 30%
activity at 10 µM (Hepatitis B virus [3]; read-out: Relative Level of HBsAg): 115%
activity at 10 µM (Hepatitis B virus [3]; read-out: Relative Level of Virion DNA): 1%
viability at 216 h, 3 µM ([4]; 3 μM, nine days, read-out: % of Control Neutral Red Dye Uptake): 99 ± 3%
viability at 216 h, 10 µM ([4]; 10 μM, nine days, read-out: % of Control Neutral Red Dye Uptake): 99 ± 4%
viability at 216 h, 30 µM ([4]; 30 μM, nine days, read-out: % of Control Neutral Red Dye Uptake): 60 ± 4%
cytotoxicity at 216 h, 30 µM ([4]; 30 μM, read-out: inhibition of neutral red dye uptake): 40%
viability at 216 h, 100 µM ([4]; 100 μM, nine days, read-out: % of Control Neutral Red Dye Uptake): 29 ± 1%
viability at 216 h, 3 µM [5]: 99 ± 3%
viability at 216 h, 10 µM [5]: 97 ± 2%
viability at 216 h, 100 µM [5]: 45 ± 4%
Cell toxicity (greater than 50% depression of dye uptake) ([6]; at concentrations with strong or moderate antiviral activity): did not occur
% of Control Neutral Red Dye Uptake ([6]; human, hep-g2 cells, 216 h, 100 µM): 29 ± 1 % of Control

Cc1cn([C@H]2C[C@H](N=[N+]=[N-])[C@@H](CO)O2)c(=O)[nH]c1=O [AZT, 3'-azido-3'deoxythymidine, reference compound]
IC50 [7]: 0.27 µg/mL (≈ 1.01 µM)
inhibition of retrovirus-induced splenomegaly (Friend-Leukemia virus; 12.5 mg/kg/day intraperitoneally): 10%
% of Control Splenomegaly (Friend-Leukemia virus; 12.5 mg/kg/day, daily treatment): 10 % of Control
IC50 [8]: 0.43 µg/mL (≈ 1.61 µM)

Source: patent publication US6030960A, “Method of treating hepatitis virus infections” (priority 1998, dated 2000)
